Test results as given in ChEMBL document CHEMBL3826887, “Functional foldamers that target bacterial membranes: The effect of charge, amphiphilicity and conformation” (2016).
≈ marks a conversion by molar mass, not a printed value.

Experiments:
Type in all cases: functional
Lipid bilayer [1] = experiment: Induction of membrane lysis in Staphylococcus aureus UL12 lipid vesicles assessed as calcein release at 93.73 uM by spectrofluorometric analysis
Lipid bilayer [2] = experiment: Induction of membrane lysis in Staphylococcus aureus UL12 lipid vesicles assessed as calcein release at 187.5 uM by spectrofluorometric analysis
Lipid bilayer [3] = experiment: Induction of membrane lysis in Staphylococcus aureus UL12 lipid vesicles assessed as calcein release at 375 uM by spectrofluorometric analysis
Lipid bilayer [4] = experiment: Induction of membrane lysis in Staphylococcus aureus UL12 lipid vesicles assessed as calcein release at 750 uM by spectrofluorometric analysis
Lipid bilayer [5] = experiment: Induction of membrane lysis in Staphylococcus aureus UL12 lipid vesicles assessed as calcein release at 1500 uM by spectrofluorometric analysis
Lipid bilayer [6] = experiment: Induction of membrane lysis in Staphylococcus aureus UL12 lipid vesicles assessed as calcein release at 3000 uM by spectrofluorometric analysis
Lipid bilayer [7] = experiment: Induction of membrane lysis in Escherichia coli W3110 lipid vesicles assessed as calcein release at 93.73 uM by spectrofluorometric analysis
Lipid bilayer [8] = experiment: Induction of membrane lysis in Escherichia coli W3110 lipid vesicles assessed as calcein release at 187.5 uM by spectrofluorometric analysis
Lipid bilayer [9] = experiment: Induction of membrane lysis in Escherichia coli W3110 lipid vesicles assessed as calcein release at 375 uM by spectrofluorometric analysis
Lipid bilayer [10] = experiment: Induction of membrane lysis in Escherichia coli W3110 lipid vesicles assessed as calcein release at 750 uM by spectrofluorometric analysis
Lipid bilayer [11] = experiment: Induction of membrane lysis in Escherichia coli W3110 lipid vesicles assessed as calcein release at 1500 uM by spectrofluorometric analysis
Lipid bilayer [12] = experiment: Induction of membrane lysis in Escherichia coli W3110 lipid vesicles assessed as calcein release at 3000 uM by spectrofluorometric analysis
Staphylococcus aureus [13] = experiment: Antibacterial activity against Staphylococcus aureus UL12
Escherichia coli [14] = experiment: Antibacterial activity against Escherichia coli W3110
Staphylococcus aureus [15] = experiment: Membrane permeabilisation in Staphylococcus aureus UL12 assessed as NPN uptake at 2mM incubated for 1 hr by spectrofluorometric analysis
Escherichia coli [16] = experiment: Membrane permeabilisation in Escherichia coli W3110 assessed as NPN uptake at 2mM incubated for 1 hr by spectrofluorometric analysis
Staphylococcus aureus [17] = experiment: Membrane permeabilisation in Staphylococcus aureus UL12 assessed as NPN uptake at 2mM incubated overnight by spectrofluorometric analysis
Escherichia coli [18] = experiment: Membrane permeabilisation in Escherichia coli W3110 assessed as NPN uptake at 2mM incubated overnight by spectrofluorometric analysis

**Q.** CN(C(=O)N(C)c1ccccc1)c1ccccc1 was tested. Which Activity (Lipid bilayer [1]) did it give?
**A.** 2.59%

**Q.** What about the Activity (Lipid bilayer [2]) of the same compound?
**A.** 5.71%

**Q.** And the Activity (Lipid bilayer [3])?
**A.** 12.8%

**Q.** What about the Activity (Lipid bilayer [4]) of the same compound?
**A.** 14.2%

**Q.** What about the Activity (Lipid bilayer [5]) of the same compound?
**A.** 15.1%

**Q.** And the Activity (Lipid bilayer [6])?
**A.** 24.1%

**Q.** What about the Activity (Lipid bilayer [7]) of the same compound?
**A.** 0.82%

**Q.** What about the Activity (Lipid bilayer [8]) of the same compound?
**A.** 2.05%

**Q.** What about the Activity (Lipid bilayer [9]) of the same compound?
**A.** 4.25%

**Q.** And the Activity (Lipid bilayer [10])?
**A.** 6.44%

**Q.** What about the Activity (Lipid bilayer [11]) of the same compound?
**A.** 7.28%

**Q.** And the Activity (Lipid bilayer [12])?
**A.** 9.02%

**Q.** What about the MIC (Staphylococcus aureus [13]) of the same compound?
**A.** 2500 µM (≈ 601 µg/mL)

**Q.** What about the MIC (Escherichia coli [14]) of the same compound?
**A.** > 3000 µM

**Q.** And the Activity (Staphylococcus aureus [15])?
**A.** 43.82%

**Q.** What about the Activity (Escherichia coli [16]) of the same compound?
**A.** 40.75%

**Q.** And the Activity (Staphylococcus aureus [17])?
**A.** 44.34%

**Q.** And the Activity (Escherichia coli [18])?
**A.** 38.67%

**Q.** Which Activity (Lipid bilayer [1]) does the source give for O=C(Nc1ccccc1)Nc1ccccc1 [DIPHENYLUREA] here?
**A.** 7.18%

**Q.** What about the Activity (Lipid bilayer [2]) of the same compound?
**A.** 9.2%

**Q.** What about the Activity (Lipid bilayer [3]) of the same compound?
**A.** 13.8%

**Q.** What about the Activity (Lipid bilayer [4]) of the same compound?
**A.** 15.3%

**Q.** What about the Activity (Lipid bilayer [5]) of the same compound?
**A.** 18.3%

**Q.** And the Activity (Lipid bilayer [6])?
**A.** 25.5%

**Q.** What about the Activity (Lipid bilayer [7]) of the same compound?
**A.** 3.17%

**Q.** What about the Activity (Lipid bilayer [8]) of the same compound?
**A.** 6.27%

**Q.** What about the Activity (Lipid bilayer [9]) of the same compound?
**A.** 6.47%

**Q.** And the Activity (Lipid bilayer [10])?
**A.** 8.53%

**Q.** And the Activity (Lipid bilayer [11])?
**A.** 12%

**Q.** What about the Activity (Lipid bilayer [12]) of the same compound?
**A.** 14.8%

**Q.** And the MIC (Staphylococcus aureus [13])?
**A.** 2000 µM (≈ 425 µg/mL)

**Q.** What about the MIC (Escherichia coli [14]) of the same compound?
**A.** > 3000 µM

**Q.** What about the Activity (Staphylococcus aureus [15]) of the same compound?
**A.** 46.01%

**Q.** What about the Activity (Escherichia coli [16]) of the same compound?
**A.** 45.29%

**Q.** What about the Activity (Staphylococcus aureus [17]) of the same compound?
**A.** 49.4%

**Q.** And the Activity (Escherichia coli [18])?
**A.** 30.02%

**Q.** For CN(C(=O)N(C)c1cccc(NC(=O)CN)c1)c1ccccc1, which Activity (Lipid bilayer [1]) is on record?
**A.** 4.45%

**Q.** And the Activity (Lipid bilayer [2])?
**A.** 10%

**Q.** And the Activity (Lipid bilayer [3])?
**A.** 11.8%

**Q.** And the Activity (Lipid bilayer [4])?
**A.** 13.2%

**Q.** And the Activity (Lipid bilayer [5])?
**A.** 15.3%

**Q.** What about the Activity (Lipid bilayer [6]) of the same compound?
**A.** 17.8%

**Q.** What about the Activity (Lipid bilayer [7]) of the same compound?
**A.** 8.45%

**Q.** And the Activity (Lipid bilayer [8])?
**A.** 27.2%

**Q.** What about the Activity (Lipid bilayer [9]) of the same compound?
**A.** 29.3%

**Q.** And the Activity (Lipid bilayer [10])?
**A.** 30%

**Q.** And the Activity (Lipid bilayer [11])?
**A.** 31%

**Q.** And the Activity (Lipid bilayer [12])?
**A.** 35.5%

**Q.** And the MIC (Staphylococcus aureus [13])?
**A.** 2500 µM (≈ 781 µg/mL)

**Q.** What about the MIC (Escherichia coli [14]) of the same compound?
**A.** 2000 µM (≈ 625 µg/mL)

**Q.** What about the Activity (Staphylococcus aureus [15]) of the same compound?
**A.** 40.6%

**Q.** And the Activity (Escherichia coli [16])?
**A.** 42.47%

**Q.** And the Activity (Staphylococcus aureus [17])?
**A.** 36.81%

**Q.** And the Activity (Escherichia coli [18])?
**A.** 52.87%

**Q.** What does the source list for Nc1cccc(NC(=O)Nc2ccccc2)c1?
**A.** Activity (Lipid bilayer [1]): 4.58%; Activity (Lipid bilayer [2]): 8.34%; Activity (Lipid bilayer [3]): 10.1%; Activity (Lipid bilayer [4]): 12.7%; Activity (Lipid bilayer [5]): 13.8%; Activity (Lipid bilayer [6]): 15.5%; Activity (Lipid bilayer [7]): 0.15%; Activity (Lipid bilayer [8]): 0.95%; Activity (Lipid bilayer [9]): 1.24%; Activity (Lipid bilayer [10]): 1.73%; Activity (Lipid bilayer [11]): 1.78%; Activity (Lipid bilayer [12]): 2.17%; MIC (Staphylococcus aureus [13]): 2500 µM (≈ 568 µg/mL); MIC (Escherichia coli [14]): > 3000 µM; Activity (Staphylococcus aureus [15]): 38.91%; Activity (Escherichia coli [16]): 33.93%; Activity (Staphylococcus aureus [17]): 19.29%; Activity (Escherichia coli [18]): 16.34%

**Q.** For NCC(=O)Nc1cccc(NC(=O)Nc2ccccc2)c1, which Activity (Lipid bilayer [1]) is on record?
**A.** 6.91%

**Q.** What about the Activity (Lipid bilayer [2]) of the same compound?
**A.** 11.2%

**Q.** What about the Activity (Lipid bilayer [3]) of the same compound?
**A.** 17.8%

**Q.** And the Activity (Lipid bilayer [4])?
**A.** 27.2%

**Q.** And the Activity (Lipid bilayer [5])?
**A.** 31.2%

**Q.** What about the Activity (Lipid bilayer [6]) of the same compound?
**A.** 44.1%

**Q.** What about the Activity (Lipid bilayer [7]) of the same compound?
**A.** 1.1%

**Q.** And the Activity (Lipid bilayer [8])?
**A.** 6.06%

**Q.** What about the Activity (Lipid bilayer [9]) of the same compound?
**A.** 9.17%

**Q.** What about the Activity (Lipid bilayer [10]) of the same compound?
**A.** 16.6%

**Q.** And the Activity (Lipid bilayer [11])?
**A.** 23.5%

**Q.** What about the Activity (Lipid bilayer [12]) of the same compound?
**A.** 29.2%

**Q.** And the MIC (Staphylococcus aureus [13])?
**A.** 1500 µM (≈ 426 µg/mL)

**Q.** And the MIC (Escherichia coli [14])?
**A.** 2000 µM (≈ 569 µg/mL)

**Q.** And the Activity (Staphylococcus aureus [15])?
**A.** 69.56%

**Q.** And the Activity (Escherichia coli [16])?
**A.** 47.09%

**Q.** What about the Activity (Staphylococcus aureus [17]) of the same compound?
**A.** 69.56%

**Q.** What about the Activity (Escherichia coli [18]) of the same compound?
**A.** 50.93%

**Q.** With CN(C(=O)N(C)c1cccc(NC(=O)c2ccncc2)c1)c1ccccc1 as the compound, how does the Activity (Lipid bilayer [1]) read?
**A.** 40%

**Q.** And the Activity (Lipid bilayer [2])?
**A.** 48.2%

**Q.** And the Activity (Lipid bilayer [3])?
**A.** 49.6%

**Q.** What about the Activity (Lipid bilayer [4]) of the same compound?
**A.** 51.5%

**Q.** And the Activity (Lipid bilayer [5])?
**A.** 53.1%

**Q.** What about the Activity (Lipid bilayer [6]) of the same compound?
**A.** 54.6%

**Q.** And the Activity (Lipid bilayer [7])?
**A.** 24.1%

**Q.** And the Activity (Lipid bilayer [8])?
**A.** 24.8%

**Q.** And the Activity (Lipid bilayer [9])?
**A.** 26.3%

**Q.** What about the Activity (Lipid bilayer [10]) of the same compound?
**A.** 29.1%

**Q.** And the Activity (Lipid bilayer [11])?
**A.** 33.6%

**Q.** And the Activity (Lipid bilayer [12])?
**A.** 35.3%

**Q.** And the MIC (Staphylococcus aureus [13])?
**A.** 1000 µM (≈ 360 µg/mL)

**Q.** And the MIC (Escherichia coli [14])?
**A.** 2000 µM (≈ 721 µg/mL)

**Q.** And the Activity (Staphylococcus aureus [15])?
**A.** 50.59%

**Q.** What about the Activity (Escherichia coli [16]) of the same compound?
**A.** 49.57%

**Q.** And the Activity (Staphylococcus aureus [17])?
**A.** 57.33%

**Q.** And the Activity (Escherichia coli [18])?
**A.** 52.34%

**Q.** For CN(C(=O)N(C)c1cccc(N)c1)c1ccccc1, which Activity (Lipid bilayer [1]) is on record?
**A.** 4.45%

**Q.** And the Activity (Lipid bilayer [2])?
**A.** 7.13%

**Q.** What about the Activity (Lipid bilayer [3]) of the same compound?
**A.** 12%

**Q.** What about the Activity (Lipid bilayer [4]) of the same compound?
**A.** 15.3%

**Q.** What about the Activity (Lipid bilayer [5]) of the same compound?
**A.** 21.2%

**Q.** What about the Activity (Lipid bilayer [6]) of the same compound?
**A.** 27%

**Q.** And the Activity (Lipid bilayer [7])?
**A.** 2.3%

**Q.** What about the Activity (Lipid bilayer [8]) of the same compound?
**A.** 5.72%

**Q.** And the Activity (Lipid bilayer [9])?
**A.** 6.75%

**Q.** What about the Activity (Lipid bilayer [10]) of the same compound?
**A.** 7.44%

**Q.** What about the Activity (Lipid bilayer [11]) of the same compound?
**A.** 8.03%

**Q.** And the Activity (Lipid bilayer [12])?
**A.** 9.65%

**Q.** And the MIC (Staphylococcus aureus [13])?
**A.** 2000 µM (≈ 511 µg/mL)

**Q.** What about the MIC (Escherichia coli [14]) of the same compound?
**A.** > 3000 µM

**Q.** And the Activity (Staphylococcus aureus [15])?
**A.** 46.26%

**Q.** What about the Activity (Escherichia coli [16]) of the same compound?
**A.** 40.18%

**Q.** What about the Activity (Staphylococcus aureus [17]) of the same compound?
**A.** 53.57%

**Q.** What about the Activity (Escherichia coli [18]) of the same compound?
**A.** 48.79%
